Marks after values point to notes of the source that are not given here. Where a SMILES comes first, the peptide text is derived from it.
Tests used:
[1] = system: IL-1R/IL-1RacP receptor; assay: IL-1-induced PGE2 synthesis in piglet brain microvascular endothelial cells; type: cell-based, porcine; details: for potency and efficacy, IL-1-induced PGE2 synthesis: truncated derivatives, FIG. 18 (WI-38 and endothelial cells)
Description: (§1) It is well known in the art that IL-1 induces the synthesis of prostaglandin E2 (PGE2) in endothelial cells and/or chondrocytes in vitro. Therefore, human chondrocytes and piglet brain microvascular endothelial cells were pre-incubated 45-60 minutes at 37° C. with peptide API-101 (^10−6M) and human IL-1 (10 ng/ml) was added in the growing medium. After 24 hours of incubation, growth medium was collected and evaporated. PGE2 measurement was determined by RIA assay with a commercial kit (Cederlane).

[2] = TNBS-induced inflammatory bowel disease rat model, Example 6 (48 h; MPO, macroscopic, histologic); type: in vivo; design: macroscopic evaluation (median score): scale not given here
Description: Colon inflammation was induced by intra-rectal/colon administration of the hapten trinitrobenzene sulphonic acid (TNBS) on male Sprague-Dawley rats (175-200 g) (Bouma, Nature Rev, 2003; Morris, Gastroenterology, 1989). Animals were anesthetized with isoflurane and TNBS dissolved in 50% ethanol (vol/vol). 120 mg/ml (TNBS) was administered into the colon (total volume of 0.25 ml per rat) using a polyethylene tube (PE50). The cannula was inserted at 8 cm from the anus and kept in place for at least 15 min after TNBS administration in order to prevent expulsion of the solution. […] A third group (control) was not injected with TNBS. Six days after administration of TNBS, rats were killed by CO2 inhalation. Day 6 was chosen as an endpoint because by day 7 spontaneous tissue regeneration begins and this can mask the therapeutic effect of the tested peptide or peptide derivative. Colon was removed and examined macroscopically (adhesions, ulcerations, discoloration and bleeding) and histologically (neutrophil infiltration, epithelial injury, crypt distortion and ulcerations) (Anthony et al. 1995; Padol et al. 2000; Dieleman, L A, et al. 1997; Torres M I et al. 1999). Two animals per group were studied.
Colon inflammation was induced by intra-rectal/colon administration of the hapten trinitrobenzene sulphonic acid (TNBS) as described in Example 4. Two hours prior to TNBS administration, peptides, peptidomimetics or 0.9% saline were administered intravenously (iv) via the caudal vein (various concentrations of mg/kg/d) (total volume of 0.3 ml). […] A third group (control) was not injected with TNBS. […] Also, these IL-1R antagonists were given twice a day (BID); Remicade® (anti-TNFα) (10 mg/kg) and dexamethasone (0.75 mg/kg) were administered intraperitoneally but only once a day (qd). The intrarectal administration (ir) of 101.10, 101.113 (1 and 2.5 mg/kg), and 5-ASA (50 mg/kg) was done one hour after TNBS administration, and twice a day, except for 5-ASA which is once a day. Finally, 101.10 (1-5 mg/kg) was also administered orally by gavage (po), twice a day. Forty-eight hours after administration of TNBS, rats were killed by CO2 inhalation. Colon was removed and assessed macroscopically (adhesions, ulcerations, discoloration and bleeding) and histologically (neutrophil infiltration, epithelial injury, crypt distortion and ulcerations). One to seven animals per group were studied, according to treatments. Myeloperoxidase (MPO) activity was measured on tissue lysates.

[3] = biological target: T1, IL-1R/IL-1RacP receptor (Sus scrofa, UniProt A0A5G2QSI4); assay: IL-1-induced PGE2 synthesis in piglet brain microvascular endothelial cells; type: cell-based, porcine; details: endothelial cells; for inhibition of IL-1-induced PGE2 synthesis, compared with parent API-101: alanine scan peptides 10^−6M
T1 construct: endogenous in cells; host or cells: piglet brain microvascular endothelial cells
T1 sequence (A0A5G2QSI4 21-572): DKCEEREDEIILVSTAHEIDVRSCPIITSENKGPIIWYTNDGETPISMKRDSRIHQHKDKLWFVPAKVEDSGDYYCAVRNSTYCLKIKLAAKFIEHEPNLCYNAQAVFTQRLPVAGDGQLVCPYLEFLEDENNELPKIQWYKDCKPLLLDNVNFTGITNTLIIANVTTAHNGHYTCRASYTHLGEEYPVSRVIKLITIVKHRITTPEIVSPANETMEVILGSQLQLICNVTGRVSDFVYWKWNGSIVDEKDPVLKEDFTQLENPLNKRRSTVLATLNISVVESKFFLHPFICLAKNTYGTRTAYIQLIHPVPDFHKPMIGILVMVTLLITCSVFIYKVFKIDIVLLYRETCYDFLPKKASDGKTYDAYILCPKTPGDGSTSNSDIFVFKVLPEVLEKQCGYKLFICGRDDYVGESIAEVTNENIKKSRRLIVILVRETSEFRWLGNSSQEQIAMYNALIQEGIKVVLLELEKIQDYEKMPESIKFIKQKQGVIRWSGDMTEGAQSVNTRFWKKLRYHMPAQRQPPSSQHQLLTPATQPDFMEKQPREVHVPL
Description: as §1

[4] = biological target: T2, IL-1R (Homo sapiens, UniProt P14778); assay: Characterization of peptidomimetics (FIGS. 26, 29, 30; assay not stated); details: FIG. 26
T2 sequence (P14778 18-569): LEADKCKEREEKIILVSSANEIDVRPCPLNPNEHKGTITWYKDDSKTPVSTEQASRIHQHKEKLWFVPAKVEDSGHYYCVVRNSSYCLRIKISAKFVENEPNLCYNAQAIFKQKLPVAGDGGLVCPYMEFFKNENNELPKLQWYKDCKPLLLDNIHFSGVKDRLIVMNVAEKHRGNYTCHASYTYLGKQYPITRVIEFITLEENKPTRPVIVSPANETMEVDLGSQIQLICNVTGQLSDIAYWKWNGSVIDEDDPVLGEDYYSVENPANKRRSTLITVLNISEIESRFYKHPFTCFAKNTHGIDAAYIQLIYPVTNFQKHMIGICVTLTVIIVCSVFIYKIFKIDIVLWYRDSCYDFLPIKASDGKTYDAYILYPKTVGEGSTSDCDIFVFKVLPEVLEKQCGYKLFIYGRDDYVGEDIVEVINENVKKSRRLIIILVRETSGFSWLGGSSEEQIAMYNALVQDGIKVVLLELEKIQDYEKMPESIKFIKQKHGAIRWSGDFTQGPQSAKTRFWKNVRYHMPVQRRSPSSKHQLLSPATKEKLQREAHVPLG

[5] = system: IL-1R/IL-1RacP receptor; assay: Ex vivo vasomotricity: reversal of IL-1β-induced vasodilation of piglet pial vessels; details: IL-1β 75 ng/ml
Description: Ex vivo vasomotor response on brain vessels was performed as described (Li et al., 1996; Hou et al., 2000; Hou et al., 2001; Hou et al., 2003). Brains were removed from Yorkshire piglets. Slices of cortex exposing the pial vessels were pinned to a wax base of a 20 ml bath containing Krebs buffer (pH 7.4) equilibrated with 95% O2, 5% CO2 and maintained at 37° C. Microvessels were visualized and recorded using a video camera mounted on a dissecting microscope. Vascular diameter was measured using a digital image analyzer. Vascular diameter was recorded before and after topical application of pre-constricting agent, U46619 (10^−7 M). After stabilization of preparation, the ligand (IL-1β, 75 ng/ml) was added until stable vasodilation was detected. Peptides were subsequently added at different concentrations from 10^−10 to 10^−5 M. Reversal of vasodilatation was visualized and measured as previously described (Hou, et al. 2000; Hou et al. 2001; Hou et al. 2003); triplicate measurements were conducted on 2 animals.

[6] = biological target: T3, IL-1R/IL-1RacP receptor (Homo sapiens, UniProt P14778); assay: IL-1-induced PGE2 synthesis in human chondrocytes; type: cell-based; design: endogenous in cells; details: alanine scan peptides 10^−6M
T3 sequence (P14778 18-569): T2 sequence (P14778 18-569)
Description: as §1

[7] = biological target: T4, IL-1R/IL-1RacP receptor (Rattus norvegicus, UniProt Q02955); assay: IL-1β-induced systemic hypotension in rats; type: in vivo; details: jugular injection
T4 construct: from tissue; host or cells: whole animal, Sprague-Dawley rat
T4 sequence (Q02955 20-576): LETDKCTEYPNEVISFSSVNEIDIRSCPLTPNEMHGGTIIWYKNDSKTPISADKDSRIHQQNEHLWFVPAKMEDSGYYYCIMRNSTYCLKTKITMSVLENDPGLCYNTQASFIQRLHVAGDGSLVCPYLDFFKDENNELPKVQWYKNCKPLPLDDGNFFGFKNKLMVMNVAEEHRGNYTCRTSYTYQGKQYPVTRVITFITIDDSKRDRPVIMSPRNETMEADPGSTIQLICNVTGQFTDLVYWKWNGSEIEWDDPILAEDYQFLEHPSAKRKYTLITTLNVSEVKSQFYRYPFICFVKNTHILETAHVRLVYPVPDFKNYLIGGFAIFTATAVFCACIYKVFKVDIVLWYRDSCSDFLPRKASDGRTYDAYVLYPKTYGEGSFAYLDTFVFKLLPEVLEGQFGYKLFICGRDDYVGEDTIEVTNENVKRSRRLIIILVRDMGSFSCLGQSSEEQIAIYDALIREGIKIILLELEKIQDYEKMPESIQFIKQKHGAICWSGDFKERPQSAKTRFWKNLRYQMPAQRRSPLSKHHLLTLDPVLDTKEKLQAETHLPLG
Description: The API-101 derivatives, API-101.10 (SEQ ID NO: 10) (and others) were tested to assess whether they could reverse the physiological actions of the natural ligand in vivo by injecting the derivative through the jugular or directly into the stomach (to verify the stability of the peptide through the digestive tract). Sprague-Dawley rats (300 g) were anesthetized with isoflurane (2.5-4%). The natural ligand (IL-1β) or vehicle (saline) was injected through the jugular vein (5 μg/kg). Blood was taken from the carotid artery for subsequent PGE2 measurements before and 10 min after each injection. Peptides were administered (dosage based on IC50 values and a volume of distribution equivalent to the extracellular space) either in the jugular vein or directly in the stomach (5 times dose used intravenously, (iv)). Arterial blood pressure and heart rate were continuously monitored (Gould) while temperature and blood gases (Radiometer) were measured for routine analysis as previously described (Li et al. 1997; Hardy et al. 1999; Najarian et al. 2000). Experiments were repeated 3 times.

[8] = Continuous infusion (ip), 0.5 mg/kg/d
[9] = Intermittent injection ip, 0.2-BID mg/kg/d

CC(C)C[C@@H](NC(=O)[C@@H](CCC(=O)O)NC(=O)[C@H]1CCCN1C(=O)[C@H](NC(=O)[C@@H](Cc1ccc(O)cc1)NC(=O)[C@H](N)CCCNC(=N)N)[C@H](C)O)C(=O)N[C@H](C)C(N)=O [API-101.107, RYTPELA] (HELM PEPTIDE1{[dR].[dY].[dT].[dP].[dE].[dL].[dA].[am]}$$$$V2.0; C-terminus assumed)
IC50 ([1]; FIG. 15, cell type not stated): 1.2 pM
MPO (% of TNBS + Saline) [2, 8]: 37 % of TNBS + Saline
histologic evaluation (median score) [2, 8]: 1.5
MPO (% of TNBS + Saline) [2, 9]: 112 % of TNBS + Saline
histologic evaluation (median score) [2, 9]: 2.5
macroscopic evaluation (median score) [2, 9]: 1.37^†
reduction in MPO activity, macroscopic and histologic score, compared with Kineret ([2]; intraperitoneal osmotic pumps (continuous infusion)): superior or equivalent in efficacy to Kineret

CC(C)C[C@@H](NC(=O)[C@@H](CCC(=O)O)NC(=O)[C@H]1CC[C@H]2CC[C@@H](NC(=O)[C@@H](Cc3ccc(O)cc3)NC(=O)[C@H](N)CCCNC(=N)N)C(=O)N21)C(=O)N[C@H](C)C(N)=O [API-101.110, RY(I^2aa)ELA]
efficacy compared with API-101.107 [3]: twice the efficacy
potency, fold higher than API-101.107 [3]: 10 fold
IC50 [4]: 10 pM

AARYTVELA [API-101.1]
inhibition of IL-1-induced PGE2 synthesis, compared with parent API-101 [3]: slightly improved efficacy
reversal of IL-1β-induced vasodilation [5]: reversed the vasodilation
vasodilation abolished [5]: 70%
inhibition of IL-1-induced PGE2 synthesis, compared with parent API-101 [6]: slightly improved efficacy

APRATVELA [API-101.3]
reversal of IL-1β-induced vasodilation [5]: reversed the vasodilation

APRYTVALA [API-101.6]
inhibition of IL-1-induced PGE2 synthesis, compared with parent API-101 [3]: lost almost all activity
reversal of IL-1β-induced vasodilation [5]: reversed the vasodilation
inhibition of IL-1-induced PGE2 synthesis, compared with parent API-101 [6]: lost almost all activity

PRYTVELA [API-101.9]
prevention of IL-1β-induced hypotension, in words [7]: less effective

TVELA [API-101.12]
potency and efficacy, IL-1-induced PGE2 synthesis [1]: decrease in potency and efficacy

YTVELA [API-101.11]
potency and efficacy, IL-1-induced PGE2 synthesis [1]: decrease in potency and efficacy

Reference: patent US8618054B2, “Interleukin-1 receptor antagonists, compositions, and methods of treatment” (Valorisation-Rechereche Société en Commandite, priority 2004, dated 2013)
